Consider two compounds from patent US20050244592A1, “Recording paper and image recording method” (FUJI XEROX CO., LTD., priority 2004, published 2005).

A short description of this data set: Solubility of the carboxylic acid in pure water. Conditions: maximum dissolution based on 100 g of pure water at 20° C.

`O=C(O)c1nc(C(=O)O)c(C(=O)O)c(C(=O)O)c1C(=O)O` [Pyridine pentacarboxylic acid] displayed a Solubility of 10 g/100 g.

Take Furan carboxylic acid: the Solubility came to 7 g/100 g.
